Here are results for 22 compounds from ChEMBL document CHEMBL1149209, “Synthesis and structure-activity relationship of 2-(aminoalkyl)-3,3a,8,12b-tetrahydro-2H-dibenzocyclohepta[1,2-b]furan derivatives: a novel series of 5-HT(2A/2C) receptor antagonists” (Bioorg Med Chem Lett, 2004).

Molecules are shown by their SMILES.

Assay [1] has as its target T1, 5-hydroxytryptamine receptor 2C (Homo sapiens, UniProt P28335).
T1 sequence (P28335 whole entry): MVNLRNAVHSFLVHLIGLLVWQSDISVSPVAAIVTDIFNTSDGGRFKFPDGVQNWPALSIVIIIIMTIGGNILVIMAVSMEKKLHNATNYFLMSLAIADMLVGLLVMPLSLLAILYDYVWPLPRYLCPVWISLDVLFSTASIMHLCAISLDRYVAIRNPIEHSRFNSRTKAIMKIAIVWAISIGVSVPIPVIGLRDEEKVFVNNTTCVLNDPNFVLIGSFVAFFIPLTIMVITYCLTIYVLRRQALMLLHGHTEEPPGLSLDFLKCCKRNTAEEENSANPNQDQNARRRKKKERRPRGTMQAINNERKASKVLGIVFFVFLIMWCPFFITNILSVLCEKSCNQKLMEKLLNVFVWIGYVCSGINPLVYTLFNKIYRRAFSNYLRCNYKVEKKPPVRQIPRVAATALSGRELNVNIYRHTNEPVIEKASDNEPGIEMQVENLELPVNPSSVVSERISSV
Description: Ability to displace [3H]- mesulergine from human cloned 5-hydroxytryptamine 2C receptor expressed in CHO cells. In kind it is cell-based.

Assay [2] addresses 5-hydroxytryptamine receptor 2A (Homo sapiens, UniProt P28223). Description: Ability to displace [125I]R91150 from human cloned 5-hydroxytryptamine 2A receptor expressed in L929 cells. In kind it is cell-based.
For another assay, the target named is Histamine H1 receptor (Homo sapiens, UniProt P35367). Description: Ability to displace [3H]pyrilamine from human cloned histamine H1 receptor expressed in CHO cells. In kind it is cell-based.
Sequence of Histamine H1 receptor (P35367 whole entry): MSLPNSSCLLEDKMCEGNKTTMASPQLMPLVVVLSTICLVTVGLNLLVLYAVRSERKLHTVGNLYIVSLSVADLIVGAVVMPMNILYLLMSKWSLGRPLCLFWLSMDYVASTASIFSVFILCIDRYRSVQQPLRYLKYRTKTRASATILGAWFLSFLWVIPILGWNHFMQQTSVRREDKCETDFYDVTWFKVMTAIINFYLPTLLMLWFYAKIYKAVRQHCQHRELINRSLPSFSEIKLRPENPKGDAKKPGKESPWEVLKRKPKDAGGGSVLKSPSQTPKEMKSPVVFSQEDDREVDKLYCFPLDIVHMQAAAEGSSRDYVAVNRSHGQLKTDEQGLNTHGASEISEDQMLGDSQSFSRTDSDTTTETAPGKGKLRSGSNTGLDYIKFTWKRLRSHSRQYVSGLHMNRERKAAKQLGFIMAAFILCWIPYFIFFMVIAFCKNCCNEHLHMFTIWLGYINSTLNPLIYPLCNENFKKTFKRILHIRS
In a further assay the test system is Rattus norvegicus. Description: Effective dose required for antagonistic activity in mCPP challenge test in male wistar rats after subcutaneous administration. In kind it is functional. To be noted: sc.

Sequence of 5-hydroxytryptamine receptor 2A (P28223 whole entry): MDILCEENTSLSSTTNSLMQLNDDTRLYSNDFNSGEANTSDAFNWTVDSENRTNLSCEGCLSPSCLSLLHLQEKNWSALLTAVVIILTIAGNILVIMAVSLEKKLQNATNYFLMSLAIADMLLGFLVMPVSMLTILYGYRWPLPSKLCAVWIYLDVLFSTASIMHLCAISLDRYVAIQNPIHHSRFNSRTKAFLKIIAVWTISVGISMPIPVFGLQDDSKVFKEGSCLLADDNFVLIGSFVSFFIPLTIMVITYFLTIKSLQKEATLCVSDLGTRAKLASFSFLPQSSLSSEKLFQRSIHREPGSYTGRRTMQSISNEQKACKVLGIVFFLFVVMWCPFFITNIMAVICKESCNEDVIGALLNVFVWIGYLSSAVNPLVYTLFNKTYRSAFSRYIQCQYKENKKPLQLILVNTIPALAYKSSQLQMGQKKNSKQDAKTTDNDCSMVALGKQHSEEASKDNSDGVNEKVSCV

In the case of `c1ccc(C2CCN(CC3C[C@@H]4c5ccccc5Sc5ccccc5[C@H]4O3)CC2)cc1` (stereo partly specified), the Ki in assay [1] came to 0.239 µM; in assay [2], 0.0687 µM; at Histamine H1 receptor it was 0.0471 µM.
The corresponding values for `CN1CCN(CC2C[C@@H]3c4ccccc4Sc4ccccc4[C@H]3O2)CC1` (stereo partly specified) are 0.12 µM, 0.0173 µM and 0.0012 µM.
The matching figures for `CN1CCN(CC2C[C@@H]3c4ccccc4Cc4ccccc4[C@H]3O2)CC1` (stereo partly specified): 0.677 µM, 0.433 µM and 0.003 µM.
The matching figures for `CN(C)CC1C[C@@H]2c3ccccc3Sc3ccccc3[C@H]2O1` (stereo partly specified): 0.0247 µM, 0.0307 µM and 0.0043 µM.
`CN(C)C[C@@H]1C[C@H]2c3ccccc3Cc3ccccc3[C@@H]2O1`: the Ki in assay [1] was determined as 0.028 µM; in assay [2], 0.104 µM; at Histamine H1 receptor it was 0.00374 µM. This compound displayed an ED50 in the assay with Rattus norvegicus of 1.26 mg/kg.
Consider `CN(C)CC1C[C@@H]2c3ccccc3COc3ccccc3[C@H]2O1` (stereo partly specified), for which the values for the Ki (in assay [1]; in assay [2]; at Histamine H1 receptor) were 0.123 µM, 1.06 µM and 0.0206 µM, respectively.
As for `CN(C)CC1C[C@@H]2c3ccccc3N(C)c3ccccc3[C@H]2O1` (stereo partly specified), the Ki in assay [1] is 0.0129 µM; in assay [2], 0.0807 µM; on Histamine H1 receptor it was 0.006 µM.
On to `CN(C)C[C@@H]1C[C@@H]2c3ccccc3Cc3ccccc3N2O1`, for which the Ki in assay [1] was 0.001 µM; in assay [2] it was 0.0025 µM; on Histamine H1 receptor, 0.00064 µM. In addition, the ED50 with Rattus norvegicus is 0.04 mg/kg.
For the compound `O=C(c1ccc(F)cc1)C1CCN(CC2C[C@@H]3c4ccccc4Cc4ccccc4[C@H]3O2)CC1` (stereo partly specified), the Ki in assay [1] was 0.017 µM; in assay [2] it was 0.433 µM; at Histamine H1 receptor, 0.0019 µM.
As for `CN(C)C[C@@H]1C[C@@H]2c3ccccc3Cc3ccccc3[C@H]2O1`, the Ki in assay [1] was found to be 0.00325 µM; in assay [2] it was 0.0196 µM; at Histamine H1 receptor, 0.00063 µM. In the assay with Rattus norvegicus, this compound came in with an ED50 of 0.06 mg/kg.
The matching figures for `CN(C)C[C@H]1C[C@@H]2c3ccccc3Cc3ccccc3[C@H]2O1`: 0.00093 µM, 0.0025 µM, 0.00054 µM and 0.04 mg/kg.
For the compound `CNCC1C[C@@H]2c3ccccc3Cc3ccccc3[C@H]2O1` (stereo partly specified), the Ki in assay [1] was 0.0097 µM; in assay [2], 0.0486 µM; at Histamine H1 receptor, 0.0093 µM.
The corresponding values for `CN(C)CC1C[C@H]2c3ccccc3Oc3ccccc3[C@H]2O1` (stereo partly specified) are 0.183 µM, 0.0926 µM and 0.0326 µM.
The matching figures for `Clc1cccc(N2CCN(CC3C[C@@H]4c5ccccc5Cc5ccccc5[C@H]4O3)CC2)c1` (stereo partly specified): 0.107 µM, 0.056 µM and 0.471 µM.
The corresponding values for `OCCN1CCN(CC2C[C@@H]3c4ccccc4Cc4ccccc4[C@H]3O2)CC1` (stereo partly specified) are 0.17 µM, 0.0865 µM and 0.0037 µM.
Take `CN(C)CC1C[C@@H]2c3ccccc3Cc3ccccc3[C@H]2O1` (stereo partly specified): the Ki in assay [1] came to 0.0067 µM; in assay [2] it was 0.0217 µM; at Histamine H1 receptor, 0.0007 µM.
The corresponding values for `CN(C)CC1C[C@@H]2c3ccccc3OCc3ccccc3[C@H]2O1` (stereo partly specified) are 0.0325 µM, 0.0905 µM and 0.0096 µM.
The matching figures for `CN(C)CC1C[C@@H]2c3ccccc3Oc3ccccc3[C@H]2O1` (stereo partly specified): 0.031 µM, 0.037 µM and 0.014 µM.
The matching figures for `c1ccc2c(c1)Cc1ccccc1[C@H]1OC(CN3CCOCC3)C[C@H]21` (stereo partly specified): 0.027 µM, 0.433 µM and 0.00236 µM.
For the compound `c1ccc(C2CCN(CC3C[C@@H]4c5ccccc5Cc5ccccc5[C@H]4O3)CC2)cc1` (stereo partly specified), the Ki was determined as 0.0427 µM in assay [1], 1.09 µM in assay [2] and 0.0297 µM at Histamine H1 receptor.
The corresponding values for `CN(C)CC1C[C@H]2c3ccccc3Cc3ccccc3[C@H]2O1` (stereo partly specified) are 0.166 µM, 0.102 µM and 0.027 µM.
Turning to `CNC[C@@H]1CC2c3ccccc3Cc3ccccc3C2O1` (single isomer, unassigned), the Ki turned out to be 0.0159 µM in assay [1], 0.0741 µM in assay [2] and 0.0035 µM at Histamine H1 receptor. This compound came in with an ED50 in the assay with Rattus norvegicus of 2.2 mg/kg.
